Legend:
CLas [1] = format: in vivo, Candidatus Liberibacter asiaticus in citrus plants; conditions: forty-eight hours after treatment; soil drench
CLas [2] = format: in vivo, Candidatus Liberibacter asiaticus in citrus plants; conditions: after twenty-eight days; soil drench, 10 Brix; p<0.05
L. crescens = format: cell-based, Liberibacter crescens; conditions: control, at each tested level

| Structure (SMILES) | change in PMA titer (positive = reduction in live bacteria) (CLas [1]) | number of copies of CLas genes, change from the initial value (CLas [2]) | inhibition (L. crescens) [%] |
| --- | --- | --- | --- |
| [H]/N=C(/N)N[C@H]1[C@H](O)[C@@H](O)[C@H](O[C@@H]2O[C@@H](C)[C@](O)(C=O)[C@H]2O[C@@H]2O[C@@H](CO)[C@H](O)[C@@H](O)[C@@H]2NC)[C@@H](N/C(N)=N\[H])[C@@H]1O [Streptomycin] | positive values | significant reduction |  |
| CN(C)[C@@H]1C(=O)C(C(N)=O)=C(O)[C@@]2(O)C(=O)C3=C(O)c4c(O)cccc4[C@@](C)(O)[C@H]3[C@H](O)[C@@H]12 [Oxytetracyclin] |  |  | 100 |

From patent US12245597B2 (priority 2017, dated 2025)
